The structures appear in SMILES notation.

Usually viability stands for a read-out of living cells in per cent, often relative to untreated cells.

Data set [1] can be described thus: CCK-8 cell viability assay, normal cell line. It counts as cell-based. As to conditions: human, BEAS-2B cells (normal cell line), BEAS-2B normal cell line, read-out: Cell viability (100%), 40 μM, 48 h, BEAS-2B. As for the experimental part: In order to investigate the anticancer activity of new synthetic 1,4-benzoxazinone-linked 1,2,3-triazole compounds, we chose several cancer cell lines, including A549 (lung), Huh7 (liver), MCF-7 (breast), HCT-116 (colon), and SKOV3 (ovary), and measured cell viability using the CCK-8 assay. Cells were exposed to 40 μM of the compounds for 48 h, and then cell viability was determined. […] In addition, we used the reference drug gefitinib as a positive control and measured its cell viability on different cell lines. […] We used BEAS-2B cells as a normal cell line to determine the toxic effects of these compounds on normal cells. […] Furthermore, we evaluated the IC50 of these compounds in A549.
Cells were cultured in DMEM or RPMI 1640 medium containing 10% FBS and 1% penicillin/streptomycin at 37°C and 5% CO2. The CCK-8 assay was performed on several human cancer cell lines, including A549, Huh7, MCF-7, HCT-116, and SKOV3, according to the manufacturer’s instructions. Cells were plated at a density of 5 × 10^3 cells per well in a 96-well plate. After 24 h of incubation, cells were treated with 40 μM compounds for 48 h. Cell viability was assessed by adding 10 μL of CCK-8 reagent, dissolved in the cell culture medium, and incubating for 1 h. Absorbance was measured at 450 nm using a microplate reader. IC50 values were determined using a dose-response curve with six concentrations (0, 10, 20, 40, 80, and 160 μM), and IC50 values were calculated using GraphPad Prism software.
For orientation: Tetrazolium assays rely on reduction of a dye to a coloured formazan, in cell work by metabolically active cells.

The subject of data set [2] is A549 cells. Kind of data set: RT-PCR gene expression. Format: cell-based, human. Particulars: A549, 10 μM, 48 h. How it is done:
To investigate the molecular mechanisms underlying the anti-tumor activity of 2H-1,4-benzoxazin-3(4H)-one-linked 1,2,3-triazole derivatives, we examined the expression of key genes involved in cell growth and death, including those related to DNA damage, oxidative stress, apoptosis, and autophagy (Figure 5). Gene expression was assessed in A549 cells treated with 14b or 14c (10 μM) for 48 h. […] The regulation of gene expression is a complex process regulated by many signaling pathways, and these signaling pathways interact with each other, all of which lead to a change in gene expression, not all in the same direction. Although the DNA damage gene p21 was decreased, another key gene, H2AX, was increased, which may stimulate DNA damage. These findings in A549 cells align with the results observed following 14b and 14c treatments.
FIGURE 5 Compounds 14b and 14c increased the gene expression. A549 cells were treated with 14b (A) and 14c (B) (10 μM) for 48 h. Gene expressions were detected by RT-PCR. Data are presented as mean ± SEM, *P < 0.05.
A549 cells were seeded in 12-well plates and treated with compounds for 48 h. Total RNA was extracted using TRIzol reagent, and RT-PCR was performed using PowerUp™ SYBR™ Green Master Mix. Gene expression was normalized to GAPDH. The results are expressed as mean ± SEM, and statistical significance was assessed using a two-tailed Student’s t-test (P < 0.05).

Data set [3] deals with A549 cells. Nature of the data set: Western blot analysis of autophagy, DNA damage and cell cycle proteins. It counts as cell-based, human. As to conditions: A549, 5, 10, 20 μM, 48 h. As for the experimental part: Next, we measured the expression of key proteins involved in autophagy, DNA damage, and cell cycle progression in 14b and 14c compound-exposed cells. After treatment for 48 h, cell proteins were collected and measured by Western blot. […] Proteins in cell cycle progression, including cyclin D, cyclin E, and β-catenin, however, were not affected in the 14 b compound exposure group compared with the control group. […] However, the key regulators involved in autophagy and cell cycle progression, such as LC3, cyclin D, cyclin E, and β-catenin, were not changed.
FIGURE 7 Compounds 14b and 14c affected DNA damage and autophagy. A549 cells were treated with different concentrations of 14b (A) and 14c (B) (5 μM, 10 μM, and 20 μM) for 48 h. Protein expressions were analyzed by Western blot. Top: Western blot of LC3, γ-H2AX, PARP, cyclin D, cyclin E, and β-catenin. Bottom: quantitative measurements relative to ACTIN. Data are presented as mean ± SEM, *P < 0.05.
The following antibodies were used for Western blot analysis: LC3, γ-H2AX, PARP, cyclin D, cyclin E, β-Catenin, and β-actin. Cells were treated with compounds (0, 5, 10, and 20 μM) for 48 h, and total cell proteins were extracted using RIPA buffer containing a protease/phosphatase inhibitor cocktail. Protein expression levels were measured and analyzed by Western blotting.
In general terms: A western blot detects proteins with antibodies after separation by electrophoresis.

Data set [4] deals with A549 cells. Nature of the data set: Calcein AM/PI live/dead viability assay. Particulars: 24 h. It counts as cell-based, human. As for the experimental part:
(§1) To investigate the role of 14b and 14c in regulating cell proliferation and death, A549 cells were treated with different concentrations of compounds for 24 h, and the live/dead cell numbers were then observed by staining with calcein AM and propidium iodide.
(§2) FIGURE 4 Compound 14b and 14c increased dead cells and decreased live cells. (A–B) A549 cells were treated with different concentrations of 14b and 14c (5 μM, 10 μM, and 20 μM) for 24 h (C–D) BEAS-2B cells were treated with different concentrations of 14b and 14c (5 μM, 10 μM, and 20 μM) for 24 h. Live and dead cell numbers were stained with calcein in AM and PI, respectively, and cells were observed by confocal microscopy. Data are presented as mean ± SEM, *P < 0.05.
(§3) The live/dead viability assay was performed using the Calcein/PI Live/Dead Viability Assay Kit. A549 cells were plated at a density of 5 × 10^3 cells per well in a 96-well plate and allowed to adhere overnight. Compounds were then added at concentrations of 0, 5, 10, or 20 μM for 24 h. After replacing the medium with fresh culture medium containing Calcein AM and propidium iodide, the cells were incubated for 30 min at 37°C in the dark. Live and dead cells were observed and photographed using a confocal microscope.

In a further data set the test system is BEAS-2B cells. Kind of data set: Calcein AM/PI live/dead viability assay, normal lung cells. It counts as cell-based. Particulars: BEAS-2B, 5, 10, 20 μM, 24 h. As for the experimental part:
as §1, §2, §3

Take `O=C1COc2ccc(NC(=O)c3cccc(-c4cn(-c5ccccc5F)nn4)c3)cc2N1` [Compound 14c]: the viability at 48 h, 40 µM in data set [1] worked out at 105 ± 2.38%. In the data set with A549 cells [2], the ATG7 gene expression entry is listed as “upregulated”, the Gpx4 gene expression result was “upregulated”, the H2AX gene expression entry is on record as “upregulated” and the apoptosis-related genes expression entry is given as “either downregulated or unchanged”. Also, in the data set on A549 cells [3], the “cell cycle progression proteins cyclin D, cyclin E, and β-catenin” value was “not changed”; the “ratio of LC3II to LC3I / LC3 (autophagy)” value is “not changed”; the γ-H2AX protein expression entry is “increased expression”. For the same molecule, the “live/dead cell numbers compared with compound 14b” value in the data set on A549 cells [4] (A549, 5, 10, 20 μM) was “The same results were also observed”. The “cytotoxicity in normal lung cells” value in the data set on BEAS-2B cells was “minimal cytotoxicity”.
As to `O=C1COc2ccc(NC(=O)c3cccc(-c4cn(-c5cccc(Br)c5)nn4)c3)cc2N1` [Compound 14b], the viability at 48 h, 40 µM in data set [1] was 93.2 ± 0.61%. In the data set with A549 cells [2], the ATG7 gene expression result is on record as “increased expression”, the Nrf2 gene expression entry was “increased expression” and the p53 gene expression entry is on record as “increased expression”. In the data set with A549 cells [3], the PARP expression result is “not changed”; the “cell cycle progression proteins cyclin D, cyclin E, and β-catenin” value is recorded as “not affected”; the “ratio of LC3II to LC3I / LC3 (autophagy)” value was “increased”; the γ-H2AX protein expression result was “induced”. The Dead cells result with A549 cells [4] (A549, 5 μM) is “increased”. The Dead cells entry with A549 cells [4] (A549, 10 μM and 20 μM) is “greatly and largely increased”. Also, the Live cells result in the data set with A549 cells [4] (A549, different concentrations (5, 10, 20 μM)) is on record as “consistently decreased”. In addition, the “cytotoxicity in normal lung cells” value with BEAS-2B cells is “minimal cytotoxicity”.
